*1 amine or outer side, *2 acyl side, *3 side chain or, on linkers, in order; H or OH if unused. Where a SMILES comes first, the peptide text is derived from it. Bridges are numbered along the chain shown (N, C = ends). Side-chain parts run from the residue outwards. [ ]: non-standard residue; d: D form. The star is where a group is joined. Trp(7-Me) = Cc1cccc2c(C[C@H](N)C(=O)O)c[nH]c12; Hexanoyl(6-NMe3+) = C[N+](C)(C)CCCCCC(=O)*; C18 diacid = O=C(O)CCCCCCCCCCCCCCCCC(=O)*; γGlu = O=C(O)[C@H](CCC(=O)[*:2])N[*:1]; 2Nal = N[C@@H](Cc1ccc2ccccc2c1)C(=O)O; AEF = NCCOc1ccc(C[C@H](N)C(=O)O)cc1; X2 = C[N+](C)(C)C[C@@H](CC(=O)O)N*; 3Pal = N[C@@H](Cc1cccnc1)C(=O)O; NMeK = CN[C@@H](CCCCN)C(=O)O; Pen = CC(C)(S)[C@H](N)C(=O)O; Suc = O=C(CCC(=O)[*:2])[*:1]; Thp = NC1(C(=O)O)CCOCC1; AEEA = NCCOCCOCC(=O)O; Sar = CNCC(=O)O

Experiment [1] relates to IL-23-stimulated phosphorylated STAT3 in peripheral blood mononuclear cells (PBMCs). In words: PBMC pSTAT3 Assay. To be noted: PBMCs from healthy donors; 30 min preincubation with peptide; IL-23 5 ng/mL for 30 min; phospho-STAT3 by MSD. It counts as cell-based. The gist of the method:
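Phospho-STAT3 quantified by Meso Scale assay in lysates of PBMCs exposed to IL-23 (5 ng/mL, 30 min, 37 °C) after 30 min peptide pretreatment. Cells were cryopreserved donor PBMCs activated 4 days with anti-CD3 plus IL-1β (100 ng/mL) and starved ~4 h; IC50 reported.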

The target in experiment [2] is T1, IL-23R (Homo sapiens, UniProt Q5VWK5).
T1 construct: HEK293 cells containing IL-23R, IL-12Rβ1 and a firefly luciferase reporter gene driven by a STAT-inducible promoter (Promega); host or cells: HEK293
T1 sequence (Q5VWK5 24-629): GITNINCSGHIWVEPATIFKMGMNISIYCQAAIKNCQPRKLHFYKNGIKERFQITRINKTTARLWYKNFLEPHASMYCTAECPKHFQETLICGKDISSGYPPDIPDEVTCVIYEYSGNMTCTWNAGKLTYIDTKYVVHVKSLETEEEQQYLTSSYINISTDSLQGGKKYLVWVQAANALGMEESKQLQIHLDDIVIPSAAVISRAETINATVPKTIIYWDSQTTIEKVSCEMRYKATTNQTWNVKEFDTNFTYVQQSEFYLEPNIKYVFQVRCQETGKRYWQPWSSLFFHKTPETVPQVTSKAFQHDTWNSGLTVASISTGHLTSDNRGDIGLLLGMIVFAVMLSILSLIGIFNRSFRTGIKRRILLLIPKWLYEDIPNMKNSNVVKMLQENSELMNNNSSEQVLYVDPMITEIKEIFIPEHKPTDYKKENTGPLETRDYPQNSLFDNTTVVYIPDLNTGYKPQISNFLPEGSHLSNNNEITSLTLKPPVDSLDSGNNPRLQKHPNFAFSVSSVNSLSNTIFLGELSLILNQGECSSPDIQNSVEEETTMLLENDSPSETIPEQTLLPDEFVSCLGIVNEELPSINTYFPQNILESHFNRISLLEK
In words: IL23R Reporter Assay. It counts as cell-based. To be noted: HEK293 cells containing IL-23R, IL-12Rβ1 and STAT-inducible firefly luciferase reporter; 10 ng/mL IL-23 (EC90); 5 h. Summed up: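 IC50 values were fitted with a 4-parameter Hill equation to luciferase signal, scaled between IL-23-only wells (0% inhibition) and 30 μM reference inhibitor (100%). The readout was a STAT-inducible reporter in IL-23R/IL-12Rβ1 HEK293 cells, stimulated with added 10 ng/mL IL-23 (EC90) for 5 h at 37° C and developed with BioGlo.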

On to `CC(=O)NCCCC[C@@H]1NC(=O)[C@H](Cc2c[nH]c3c(C)cccc23)NC(=O)[C@H]([C@@H](C)O)NC(=O)[C@H](CC(N)=O)NC(=O)[C@@H](NC(=O)[C@@H](CCCNC(=N)N)NC(C)=O)C(C)(C)SSC(C)(C)[C@@H](C(=O)N[C@@H](Cc2ccc(OCCN)cc2)C(=O)N[C@@H](Cc2ccc3ccccc3c2)C(=O)NC2(C(=O)N[C@@H](CCCCNC(=O)COCCOCCNC(=O)COCCOCCNC(=O)CC[C@H](NC(=O)CCCCCCCCCCCCCCCCC(=O)O)C(=O)O)C(=O)N[C@@H](CC(N)=O)C(=O)N[C@@H](Cc3cccnc3)C(=O)N(C)[C@@H](CCCCNC(=O)CCC(=O)N[C@H](CC(=O)O)C[N+](C)(C)C)C(N)=O)CCOCC2)NC1=O` [compound 21, MeCO-r-Pen(3)-N-T-7MeW-K(Ac)-Pen(3)-AEF-2Nal-THP-K(PEG2PEG2gEC18OH)-N-3Pya-NMeK(d)-CONH2] (Ac-[dR][Pen]NT[Trp(7-Me)]K(Ac)[Pen][AEF][2Nal][Thp]K([AEEA-AEEA-γGlu-C18 diacid])N[3Pal][NMeK]([Suc-X2])-NH2; disulfide 2-7), for which the IC50 (in general, the concentration needed to halve the response being measured) was < 0.5 nM in experiment [1] and < 50 nM in experiment [2].
For `CC(=O)NCCCC[C@@H]1NC(=O)[C@H](Cc2c[nH]c3c(C)cccc23)NC(=O)[C@H]([C@@H](C)O)NC(=O)[C@H](CC(N)=O)NC(=O)[C@@H](NC(=O)[C@@H](CCCNC(=N)N)NC(=O)CCC(=O)N[C@H](CC(=O)O)C[N+](C)(C)C)C(C)(C)SSC(C)(C)[C@@H](C(=O)N[C@@H](Cc2ccc(OCCN)cc2)C(=O)N[C@@H](Cc2ccc3ccccc3c2)C(=O)NC2(C(=O)N[C@@H](CCC(=O)O)C(=O)N[C@@H](CC(N)=O)C(=O)N[C@@H](Cc3cccnc3)C(=O)N(C)[C@@H](CCCCNC(=O)COCCOCCNC(=O)COCCOCCNC(=O)CC[C@H](NC(=O)CCCCCCCCCCCCCCCCC(=O)O)C(=O)O)C(N)=O)CCOCC2)NC1=O` [compound 31, succiniccarn-r-Pen(3)-N-T-7MeW-K(Ac)-Pen(3)-AEF-2Nal-THP-E-N-3Pya-NMeK(PEG2PEG2gEC18OH)-CONH2] ({X2-Suc}-[dR][Pen]NT[Trp(7-Me)]K(Ac)[Pen][AEF][2Nal][Thp]EN[3Pal][NMeK]([AEEA-AEEA-γGlu-C18 diacid])-NH2; disulfide 2-7) the same measures were < 0.5 nM and 50 to 500 nM.
Turning to `CC(=O)NCCCC[C@@H]1NC(=O)[C@H](Cc2c[nH]c3c(C)cccc23)NC(=O)[C@H]([C@@H](C)O)NC(=O)[C@H](CC(N)=O)NC(=O)[C@@H](NC(=O)[C@@H](CCCNC(=N)N)NC(=O)CCCCC[N+](C)(C)C)C(C)(C)SSC(C)(C)[C@@H](C(=O)N[C@@H](Cc2ccc(OCCN)cc2)C(=O)N[C@@H](Cc2ccc3ccccc3c2)C(=O)NC2(C(=O)N[C@@H](CCC(=O)O)C(=O)N[C@@H](CC(N)=O)C(=O)N[C@@H](Cc3cccnc3)C(=O)N(C)CC(=O)N[C@@H](CCCCNC(=O)COCCOCCNC(=O)COCCOCCNC(=O)CC[C@H](NC(=O)CCCCCCCCCCCCCCCCC(=O)O)C(=O)O)C(N)=O)CCOCC2)NC1=O` [compound 81, 5cpaCO-r-Pen(3)-N-T-7MeW-K(Ac)-Pen(3)-AEF-2Nal-THP-E-N-3Pya-Sar-K(PEG2PEG2gEC18OH)-CONH2] ({Hexanoyl(6-NMe3+)}-[dR][Pen]NT[Trp(7-Me)]K(Ac)[Pen][AEF][2Nal][Thp]EN[3Pal][Sar]K([AEEA-AEEA-γGlu-C18 diacid])-NH2; disulfide 2-7), the IC50 in experiment [1] is < 0.5 nM; in experiment [2] it was 50 to 500 nM.

Source of the values: patent US20260250320A1, “LIPIDATED PEPTIDE INHIBITORS OF INTERLEUKIN-23 RECEPTOR” (Janssen Pharmaceutica NV, priority 2023, published 2026).
